The source of these data is patent publication US20040127440A1, “Methods and compositions for control of bone formation via modulation of neuropeptide Y activity” (BAYLOR COLLEGE OF MEDICINE, priority 2000, published 2004).

The assay deals with wt mice. Briefly: Intracerebroventricular infusion of NPY in wt mice, histological/histomorphometric analysis of vertebrae. In kind it is in vivo. The note with it: 4 month-old wt mice, icv infusion 0.5 μl/hour (75 ng/hr) for 28 days, compared with PBS-treated mice. The procedure: Bone specimens were processed as described (Ducy et al., 1999, Genes Dev 13, 1025-1036).
Histological analyses were performed on undecalcified sections stained with the von Kossa reagent and counterstained with Kernechtrot (Amling et al., 1999, Endocrinology, 140: 4982-4987). Double labeling technique with calcein has been described (Amling et al., 1999, Endocrinology, 140: 4982-4987). Static and dynamic histomorphometric analyses were performed according to standard protocols (Parfitt et al., 1987, J Bone Min Res, 2:595-610) using the Osteomeasure Analysis System (Osteometrics, Atlanta). Statistical differences between groups (n=4 to 6) were assessed by Student's test.
Animals were anesthetized with avertin and placed on a stereotaxic instrument (Stoelting). The calvaria was exposed and a 0.7 mm hole was drilled upon bregma. A 28-gauge cannula (Brain infusion kit II, Alza) was implanted into the third ventricle according to the following coordinates: midline, −0.3 AP, 3 mm ventral (0 point bregma). The cannula was secure to the skull with cyanoacrylate, and attached with Tygon tubing to an osmotic pump (Alza) placed in the dorsal subcutaneous space of the animal. The rate of delivery was 0.5 μl/hour (75 ng/hr) of NPY (Sigma) or PBS for 28 days.
The issue of whether NPY binding to its receptor would affect bone mass was examined in this example. […]

In the case of neuropeptide Y [NPY], the bone mass entry is on record as “decrease” and the bone volume result was “decrease”.
